# Measured values taken from patent EP1595878A1, “INDOLE DERIVATIVES WITH APOPTOSIS INDUCING ACTIVITY” (Zentaris GmbH, priority 2004, dated 2005).
# Like-named read-outs stand apart in the source and are kept apart here.
# Experiments:
# [1] = molecular target: humaner DNA-Topoisomerase II (Homo sapiens, UniProt P11388); test: kDNA decatenation assay for topoisomerase II activity; type: biochemical; conditions: compound 1 at 100, 31.6 and 10 µM; reference compounds at 100 µM
# Protocol: In diesem von P. Arimondo (Anti-Cancer Drug Design 2000, 15 (6), 413-421) beschriebenen Assay wird kDNA mit humaner DNA-Topoisomerase II in Abwesenheit oder Gegenwart der Testverbindungen behandelt. Die Testung der erfindungsgemäßen Verbindung 1 erfolgte hierbei bei drei unterschiedlichen Konzentrationen (100, 31.6 und 10 µM). Zum Vergleich setzte man eine Positivkontrolle und die Referenzverbindungen m-Amsacrin (m-Amsa), Paclitaxel (Taxol) und Vincristine bei einer jeweiligen Konzentration von 100µM ein.
# Zu 1µL vorgelegter Testsubstanz (20fach konzentriert in 100% DMSO) werden 2µL 10x Assay Puffer, 1µL kDNA (200ng), 0,5µL human Topoisomerase II (1unit) und 15,5µL H2O pipettiert und gemischt.
# Die Reaktionsansätze werden in den auf 37°C vorgeheizten Heizblock gestellt und 10min bei 37°C inkubiert. Die Inkubation wird nach Zugabe von 4µL 5x Stop Puffer gestoppt und nachfolgend die Substanz mit CIA extrahiert. Danach werden 20µL des Überstandes auf ein 1 % Agarosegel mit 0,25µg/mL Ethidiumbromid aufgetragen und 1 h bei 100V aufgetrennt. Zum Schluss wird das Gel unter UV-Anregung fotografiert (s. Figur 1). Die Quantifizierung der Inhibierung der Decatenation von kDNA erfolgt mit der GelPro®Analyzer Software (s. Figur 2)
# human Topoisomerase II = human Topoisomerase II (Homo sapiens, UniProt P11388); test: pRYG relaxation assay for topoisomerase II activity; type: biochemical; conditions: compound 1 at 100, 31.6 and 10 µM; reference compounds at 316 and 100 µM
# Protocol: Mit diesem Relaxationsassay konnte zusätzlich die inhibitorische Eigenschaft der erfindungsgemäßen Verbindungen auf Topoisomerase II gezeigt werden. Die Testung der erfindungsgemäßen Verbindung 1 erfolgte hierbei bei drei unterschiedlichen Konzentrationen (100, 31.6 und 10 µM). Zum Vergleich setzte man die Referenzverbindungen m-Amsacrin, Paclitaxel (Taxol) und Vincristine bei Konzentrationen von 316 und 100µM ein.
# Zu 1µL vorgelegter Testsubstanz (20fach konzentriert in 100% DMSO) werden 2µL 10x Assay Puffer, 0,5µL pRYG DNA (125ng), 0,5µL human Topoisomerase II (1 unit) und 16µL H2O pipettiert und gemischt. Die Reaktionsansätze werden in den auf 37°C vorgeheizten Heizblock gestellt und 30min bei 37°C inkubiert. Die Inkubation wird nach Zugabe von 4µL 5x Stop Puffer abgestoppt. Danach werden 10µL des Ansatzes auf ein 1,2% Agarosegel mit 0,25µg/mL Ethidiumbromid aufgetragen und 2,5h bei 100V aufgetrennt. Zum Schluß wird das Gel unter UV Anregung fotografiert (s. Figur 3). Die Quantifizierung der Inhibierung der pRYG Relaxation erfolgt mit der GelPro®Analyzer Software (s. Figur 4).
# LT12/mdr = test: XTT proliferation assay, resistant LT12/mdr; type: cell-based; conditions: Rattus norvegicus, LT12; LT12mdr; read-out: XTT Proliferationsassay, EC50
# Description: (§1) Die Substanzen 1, 2, 4, 9, 11, 12 , 13 und 15 wurden in einem Proliferationstest an etablierten Tumorzelllinien auf ihre anti-proliferative Aktivität hin untersucht (D.A. Scuderio et al. Cancer Res. 1988, 48, 4827-4833). Der verwendete Test bestimmt die zelluläre Dehydrogenase-Aktivität und ermöglicht eine Bestimmung der Zellvitalität und indirekt der Zellzahl. Bei den verwendeten Zelllinien handelt es sich um die humane Cervixkarzinom Zelllinie KB/HeLa (ATCC CCL17), die ovariale Adenokarzinomzelllinie SKOV-3 (ATCC HTB77), die humane Glioblastom Zelllinie SF-268 (NCI 503138) und die Lungenkarzinom Zelllinie NCI-H460 (NCI 503473). Tabelle 1:
# (§2) Zur weiteren Charakterisierung wurden die Substanzen 1, 2, 4 und 11 gegenüber multi drug resistenten Zelllinien im Vergleich zu den nicht-resistenten Wildtypzelllinien untersucht.
# (§3) Bei den untersuchten Zelllinien handelt es sich um die murine L1210, die akute myeloische Leukaemie Zelllinie LT12 und um die resistenten Linien L1210/mdr und LT12/mdr. Außerdem wurden die murine P388 Zelllinie (methyl-cholanthreneinduced lymphoid neoplasm) sowie die Doxorubicin-resistente P388 als Testsysteme herangezogen.
# L1210VCR = test: XTT proliferation assay, resistant L1210; type: cell-based, murine; conditions: Mus musculus, L1210; L1210VCR; read-out: XTT Proliferationsassay, EC50
# Description: as §1, §2, §3
# [2] = tested on: Doxorubicin-resistente P388; test: XTT proliferation assay, doxorubicin-resistant P388; type: cell-based, murine; conditions: Mus musculus, P388; P388ADR; read-out: XTT Proliferationsassay, EC50
# Description: as §1, §2, §3
# Rindertubulin = test: Inhibition of tubulin polymerisation in vitro; type: biochemical, Rind; conditions: for Hemmwirkung auf die Polymerisation von Tubulin: verbal summary of Table 3; for EC50: cells print µM, head µg/ml, read-out: Hemmung der Tubulin-Polymerisation, EC50
# Description: Die Substanzen 1, 4, 9, 11, 12, 13 und 15 wurden in einem in-vitro Test auf Hemmung der Polymerisation von Rindertubulin getestet (D.M. Bollag et al. Cancer Res. 1995, 55, 2325-2333). In diesem Test wird durch Zyklen von Polymerisation und Depolymerisation aufgereinigtes Tubulin eingesetzt, welches durch Zugabe von GTP und Erwärmung zur Polymerisation gebracht wird. In Tabelle 3 sind die EC50 Werte der Polymerisationshemmung von Tubulin mit 30% assoziierten Proteinen (MAPs) angegeben.
# KB/HeLa Zellen = test: Cell cycle analysis (G2/M arrest); type: cell-based; conditions: Homo sapiens, read-out: EC50 in nM (50% cells in G2/M)
# Description: Der Zellzyklus umfasst die Entwicklung der Zelle von einer Zellgeneration zur nächsten.
# Während der Ruhephase (G0) und präsynthetischen Phase (G1) besitzt die Zelle einen diploiden Chromosomensatz (2c). In der Synthesephase (S) wird die DNA-Menge durch Replikation vermehrt. Die S-Phase endet mit Erreichen der prämitotischen Phase (G2M), in der die Zelle einen reduplizierten Chromosomenbestand (4c) und verdoppelten DNA-Gehalt aufweist. In der nachfolgenden, kurzdauernden Mitosephase (M) kommt es zur gleichmäßigen Aufteilung der reduplizierten Chromosomen auf zwei Tochterzellen, die dann jeweils wieder einen diploiden DNA Gehalt zeigen und sich in der G01-Phase befinden, so daß der Zellzyklus neu beginnen kann.
# Für die Zellzyklusanalyse wurden KB/HeLa Zellen mit den Testsubstanzen in unterschiedlichen Konzentrationen (0.1-1000 nM) 24 Stunden bei 37°C behandelt.
# Der prozentuale Anteil der in der G2/M Phase des Zellzyklus arrettierten Zellen nach Behandlung mit Referenz- oder ausgewählten Testsubstanzen ist in der nachfolgenden Tabelle 4 dargestellt. Die Ergebnisse wurden mit einer speziellen Analysesoftware (ModFit™) ausgewertet.
# Melanom, MEXF462 = type: in vivo, Mäuse; conditions: for Todesfällen: dead animals / total
# Description: Die in vivo Aktivität und Verträglichkeit der erfindungsgemäßen Verbindung 2 wurde im Vergleich zu den Substanzen 10 und 14 in einem humanen Xenograft-Modell (Melanom, MEXF462) überprüft. Die Ergebnisse sind in der nachfolgenden Tabelle 6 zusammengefasst: in vivo Aktivitäten von Verbindung 2, 10 and 14 (Melanom; MEXF462) Tabelle 6: […]
# Mamma, MAXF857 = type: in vivo, Mäuse; conditions: 40 mg/kg p.o.; for Todesfällen: dead animals / total
# Description: Die in vivo Aktivität und Verträglichkeit der erfindungsgemäßen Verbindung 2 wurde im Vergleich zu der Substanz 10 in einem weiteren humanen Xenograft-Modell (Mamma, MAXF857) überprüft. Die Ergebnisse werden in der nächsten Tabelle gezeigt: Effect of 2 and 10 on the Mammary Cancer MAXF857 Tabelle 7: […]
# [3] = tested on: humane Cervixkarzinom Zelllinie KB/HeLa (ATCC CCL17); test: XTT proliferation assay (cytotoxicity test), KB/HeLa; type: cell-based; conditions: Homo sapiens, read-out: XTT Proliferationsassay, EC50
# Description: as §1, with “503473).” for “503473). Tabelle 1:”
# [4] = tested on: ovariale Adenokarzinomzelllinie SKOV-3 (ATCC HTB77); test: XTT proliferation assay (cytotoxicity test), SKOV-3; type: cell-based; conditions: Homo sapiens, SK-OV-3; SKOV3; read-out: XTT Proliferationsassay, EC50
# Description: as §1, with “503473).” for “503473). Tabelle 1:”
# [5] = tested on: humane Glioblastom Zelllinie SF-268 (NCI 503138); test: XTT proliferation assay (cytotoxicity test), SF-268; type: cell-based; conditions: Homo sapiens, read-out: XTT Proliferationsassay, EC50
# Description: as §1, with “503473).” for “503473). Tabelle 1:”
# [6] = tested on: Lungenkarzinom Zelllinie NCI-H460 (NCI 503473); test: XTT proliferation assay (cytotoxicity test), NCI-H460; type: cell-based; conditions: Homo sapiens, NCl-H460, read-out: XTT Proliferationsassay, EC50
# Description: as §1, with “503473).” for “503473). Tabelle 1:”
# [7] = tubulin with 30% associated proteins (MAPs)
# Sequence of human Topoisomerase II (P11388 whole entry): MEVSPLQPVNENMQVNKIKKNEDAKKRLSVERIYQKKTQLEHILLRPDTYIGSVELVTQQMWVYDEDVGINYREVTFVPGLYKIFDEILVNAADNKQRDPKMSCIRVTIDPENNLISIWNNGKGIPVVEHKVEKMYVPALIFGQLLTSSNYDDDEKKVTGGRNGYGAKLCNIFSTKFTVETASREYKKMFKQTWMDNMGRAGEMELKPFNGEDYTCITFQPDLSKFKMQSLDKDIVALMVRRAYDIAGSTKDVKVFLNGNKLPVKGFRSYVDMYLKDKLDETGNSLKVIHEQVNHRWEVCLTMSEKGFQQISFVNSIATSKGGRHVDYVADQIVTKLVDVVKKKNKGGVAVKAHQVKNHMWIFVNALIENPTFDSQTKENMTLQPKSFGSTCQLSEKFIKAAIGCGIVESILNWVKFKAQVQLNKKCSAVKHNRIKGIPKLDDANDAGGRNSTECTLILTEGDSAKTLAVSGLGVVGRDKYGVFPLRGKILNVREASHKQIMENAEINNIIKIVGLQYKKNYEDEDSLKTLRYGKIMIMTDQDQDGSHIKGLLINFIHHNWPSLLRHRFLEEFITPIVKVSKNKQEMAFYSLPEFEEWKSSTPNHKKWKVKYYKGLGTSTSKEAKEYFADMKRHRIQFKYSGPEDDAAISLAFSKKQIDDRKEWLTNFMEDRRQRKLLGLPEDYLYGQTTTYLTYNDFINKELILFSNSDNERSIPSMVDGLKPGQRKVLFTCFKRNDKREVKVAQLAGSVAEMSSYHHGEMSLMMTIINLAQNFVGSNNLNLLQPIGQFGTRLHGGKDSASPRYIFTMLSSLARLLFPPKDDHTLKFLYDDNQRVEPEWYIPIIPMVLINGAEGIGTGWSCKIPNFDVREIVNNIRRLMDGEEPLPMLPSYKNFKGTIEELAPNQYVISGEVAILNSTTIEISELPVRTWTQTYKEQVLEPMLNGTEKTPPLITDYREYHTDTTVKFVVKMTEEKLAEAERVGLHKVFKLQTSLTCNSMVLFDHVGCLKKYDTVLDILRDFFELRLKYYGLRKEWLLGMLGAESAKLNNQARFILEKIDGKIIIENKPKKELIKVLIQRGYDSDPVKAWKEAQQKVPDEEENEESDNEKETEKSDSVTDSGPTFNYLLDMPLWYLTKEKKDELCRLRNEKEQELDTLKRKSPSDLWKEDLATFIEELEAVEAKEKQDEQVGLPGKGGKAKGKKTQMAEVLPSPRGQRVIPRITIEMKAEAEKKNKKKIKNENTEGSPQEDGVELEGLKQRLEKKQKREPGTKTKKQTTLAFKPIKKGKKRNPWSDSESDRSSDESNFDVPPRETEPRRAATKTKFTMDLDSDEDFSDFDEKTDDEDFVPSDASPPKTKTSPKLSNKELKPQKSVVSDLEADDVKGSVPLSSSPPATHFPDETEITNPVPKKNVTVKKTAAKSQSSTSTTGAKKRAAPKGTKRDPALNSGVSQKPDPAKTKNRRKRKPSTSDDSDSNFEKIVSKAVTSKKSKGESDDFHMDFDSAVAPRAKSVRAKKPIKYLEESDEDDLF
# Sequence of humaner DNA-Topoisomerase II (P11388 whole entry): as above
compound,measurement,setting,value
CC(=O)O[C@H]1C(=O)[C@@]2(C)[C@H]([C@H](OC(=O)c3ccccc3)[C@]3(O)C[C@H](OC(=O)[C@H](O)[C@@H](NC(=O)c4ccccc4)c4ccccc4)C(C)=C1C3(C)C)[C@]1(OC(C)=O)CO[C@@H]1C[C@@H]2O [Paclitaxel],Hemmung der Topoisomerase II (Inhibierung der Decatenation von kDNA),[1],keine inhibitorischen Effekte
same,Hemmung der Topoisomerase II (Inhibierung der pRYG Relaxation),human Topoisomerase II,keine inhibitorischen Effekte
"O=C(Nc1ccc2[nH]ncc2c1)C(=O)c1cn(Cc2ccc(Cl)cc2)c2ccccc12 [Verbindung 4, 2-[1-(4-Chlor-benzyl)-1H-indol-3-yl]-N-(1H-indazol-5-yl)-2-oxo-acetamid]",EC50,LT12/mdr,0.093 µg/mL
same,EC50,L1210VCR,0.241 µg/mL
same,EC50,[2],0.231 µg/mL
same,Hemmwirkung auf die Polymerisation von Tubulin,Rindertubulin,sehr potente Hemmwirkung
same,EC50,"KB/HeLa Zellen; KB/HeLa cells, 0.1-1000 nM, 24 h at 37°C",252 nM
"Cc1ccc2cc(NC(=O)C(=O)c3cn(Cc4ccc(Cl)cc4)c4ccccc34)ccc2n1 [Verbindung 9, 2-[1-(4-Chlor-benzyl)-1H-indol-3-yl]-N-(2-methyl-chinolin-6-yl)-2-oxo-acetamid]",Hemmwirkung auf die Polymerisation von Tubulin,Rindertubulin,sehr potente Hemmwirkung
"O=C(Nc1ccc2ncccc2c1)C(=O)c1cn(Cc2ccc(Cl)cc2)c2ccccc12 [Verbindung 10, 2-[1-(4-Chlor-benzyl)-1H-indol-3-yl]-2-oxo-N-chinolin-6-yl-acetamid]",Optimale T/C % (Tag),"Melanom, MEXF462; 55 mg/kg p.o., day 14",0.8% (14)
same,Todesfällen,"Melanom, MEXF462; 55 mg/kg p.o.",2/6 Mäuse tot
same,Optimale T/C % (Tag),"Melanom, MEXF462; 70 mg/kg p.o., day 7",2.3% (7)
same,Todesfällen,"Melanom, MEXF462; 70 mg/kg p.o.",5/6 Mäuse tot
same,Optimale T/C % (Tag),"Mamma, MAXF857; day 10",6.5% (10)
same,Todesfällen,"Mamma, MAXF857",2/6
same,Todesfällen,"Mamma, MAXF857; listed as 10 (V)",2/6 Mäuse tot
"O=C(Nc1ccc2ncccc2c1)C(=S)c1cn(Cc2ccc(Cl)cc2)c2ccccc12 [Verbindung 11, 2-[1-(4-Chlor-benzyl)-1H-indol-3-yl]-N-chinolin-6-yl-2-thioxo-acetamid]","Hemmung der Tubulin-Polymerisation, EC50","Rindertubulin; tubulin with 30% associated proteins (MAPs), mean of two independent experiments",0.97 µg/mL
same,Hemmwirkung auf die Polymerisation von Tubulin,Rindertubulin,sehr potente Hemmwirkung
"O=C(Nc1cccc2cccnc12)C(=O)c1cn(Cc2ccc(Cl)cc2)c2ccccc12 [Verbindung 12, 2-[1-(4-Chlor-benzyl)-1H-indol-3-yl]-2-oxo-N-chinolin-8-yl-acetamid]",EC50,[3],> 3.16 µg/mL
same,EC50,[4],> 3.16 µg/mL
same,EC50,[5],> 3.16 µg/mL
same,EC50,[6],> 3.16 µg/mL
same,EC50,Rindertubulin; [7],> 10 µM
same,Hemmwirkung auf die Polymerisation von Tubulin,Rindertubulin,keinen Effekt
"O=C(Nc1cccc2cnccc12)C(=O)c1cn(Cc2ccc(Cl)cc2)c2ccccc12 [Verbindung 13, 2-[1-(4-Chlor-benzyl)-1H-indol-3-yl]-N-isochinolin-5-yl-2-oxo-acetamid]",EC50,[3],> 3.16 µg/mL
same,EC50,[4],> 3.16 µg/mL
same,EC50,[5],> 3.16 µg/mL
same,EC50,[6],> 3.16 µg/mL
same,EC50,Rindertubulin; [7],> 10 µM
same,Hemmwirkung auf die Polymerisation von Tubulin,Rindertubulin,keinen Effekt
"O=C(Nc1ccncc1)C(=O)c1cn(Cc2ccc(Cl)cc2)c2ccccc12 [Verbindung 14, 2-[1-(4-Chlor-benzyl)-1H-indol-3-yl]-2-oxo-N-pyridin-4-yl-acetamid]",EC50,"KB/HeLa Zellen; HeLa, 24 h",> 1000 nM
same,Optimale T/C % (Tag),"Melanom, MEXF462; 16 mg/kg p.o., day 18",0.7% (18)
same,Todesfällen,"Melanom, MEXF462; 16 mg/kg p.o.",3/5 Mäuse tot
same,Optimale T/C % (Tag),"Melanom, MEXF462; 32 mg/kg p.o., day 7",14.6% (7)
same,Todesfällen,"Melanom, MEXF462; 32 mg/kg p.o.",3/5 Mäuse tot
"Cc1ccc2cccc(NC(=O)C(=O)c3cn(Cc4ccc(F)cc4)c4ccccc34)c2n1 [Verbindung 15, 2-[1-(4-Fluor-benzyl)-1H-indol-3-yl]-N-(2-methyl-chinolin-8-yl)-2-oxo-acetamid]",EC50,[3],> 3.16 µg/mL
same,EC50,[5],> 3.16 µg/mL
same,EC50,Rindertubulin; [7],> 10 µM
same,Hemmwirkung auf die Polymerisation von Tubulin,Rindertubulin,keinen Effekt
CC[C@]1(O)C[C@H]2CN(CCc3c([nH]c4ccccc34)[C@@](C(=O)OC)(c3cc4c(cc3OC)N(C=O)[C@H]3[C@@](O)(C(=O)OC)[C@H](OC(C)=O)[C@]5(CC)C=CCN6CC[C@]43[C@@H]65)C2)C1 [Vincristine],Hemmung der Topoisomerase II (Inhibierung der Decatenation von kDNA),[1],keine inhibitorischen Effekte
same,Hemmung der Topoisomerase II (Inhibierung der pRYG Relaxation),human Topoisomerase II,keine inhibitorischen Effekte
